Broadly, the IC50 is the concentration that inhibits the measured activity by half.

Structures are written as SMILES.

This assay deals with GCN2 (Homo sapiens (Human), UniProt Q9P2K8). Description: GCN2 Biochemical Assay (TR-FRET, GFP-eIF2S1 substrate phosphorylation). As to conditions: read-out: IC50 (GCN2 Inhibitory Activity). The procedure, abridged: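 In-house GCN2 (1.6 nM 2× stock) phosphorylates GFP-eIF2S1 (50 nM 2× stock) with ATP (0.2 mM 2× stock) and tRNA, pH 7.5, 70 min at room temperature; 10-point 3.16-fold compound series. TR-FRET detection with Tb-anti-phospho antibody, 2–3 h, Ex 340/Em 490/520 nm; artifact plate spiked with phospho-substrate.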
Chain of GCN2 (Q9P2K8 whole entry): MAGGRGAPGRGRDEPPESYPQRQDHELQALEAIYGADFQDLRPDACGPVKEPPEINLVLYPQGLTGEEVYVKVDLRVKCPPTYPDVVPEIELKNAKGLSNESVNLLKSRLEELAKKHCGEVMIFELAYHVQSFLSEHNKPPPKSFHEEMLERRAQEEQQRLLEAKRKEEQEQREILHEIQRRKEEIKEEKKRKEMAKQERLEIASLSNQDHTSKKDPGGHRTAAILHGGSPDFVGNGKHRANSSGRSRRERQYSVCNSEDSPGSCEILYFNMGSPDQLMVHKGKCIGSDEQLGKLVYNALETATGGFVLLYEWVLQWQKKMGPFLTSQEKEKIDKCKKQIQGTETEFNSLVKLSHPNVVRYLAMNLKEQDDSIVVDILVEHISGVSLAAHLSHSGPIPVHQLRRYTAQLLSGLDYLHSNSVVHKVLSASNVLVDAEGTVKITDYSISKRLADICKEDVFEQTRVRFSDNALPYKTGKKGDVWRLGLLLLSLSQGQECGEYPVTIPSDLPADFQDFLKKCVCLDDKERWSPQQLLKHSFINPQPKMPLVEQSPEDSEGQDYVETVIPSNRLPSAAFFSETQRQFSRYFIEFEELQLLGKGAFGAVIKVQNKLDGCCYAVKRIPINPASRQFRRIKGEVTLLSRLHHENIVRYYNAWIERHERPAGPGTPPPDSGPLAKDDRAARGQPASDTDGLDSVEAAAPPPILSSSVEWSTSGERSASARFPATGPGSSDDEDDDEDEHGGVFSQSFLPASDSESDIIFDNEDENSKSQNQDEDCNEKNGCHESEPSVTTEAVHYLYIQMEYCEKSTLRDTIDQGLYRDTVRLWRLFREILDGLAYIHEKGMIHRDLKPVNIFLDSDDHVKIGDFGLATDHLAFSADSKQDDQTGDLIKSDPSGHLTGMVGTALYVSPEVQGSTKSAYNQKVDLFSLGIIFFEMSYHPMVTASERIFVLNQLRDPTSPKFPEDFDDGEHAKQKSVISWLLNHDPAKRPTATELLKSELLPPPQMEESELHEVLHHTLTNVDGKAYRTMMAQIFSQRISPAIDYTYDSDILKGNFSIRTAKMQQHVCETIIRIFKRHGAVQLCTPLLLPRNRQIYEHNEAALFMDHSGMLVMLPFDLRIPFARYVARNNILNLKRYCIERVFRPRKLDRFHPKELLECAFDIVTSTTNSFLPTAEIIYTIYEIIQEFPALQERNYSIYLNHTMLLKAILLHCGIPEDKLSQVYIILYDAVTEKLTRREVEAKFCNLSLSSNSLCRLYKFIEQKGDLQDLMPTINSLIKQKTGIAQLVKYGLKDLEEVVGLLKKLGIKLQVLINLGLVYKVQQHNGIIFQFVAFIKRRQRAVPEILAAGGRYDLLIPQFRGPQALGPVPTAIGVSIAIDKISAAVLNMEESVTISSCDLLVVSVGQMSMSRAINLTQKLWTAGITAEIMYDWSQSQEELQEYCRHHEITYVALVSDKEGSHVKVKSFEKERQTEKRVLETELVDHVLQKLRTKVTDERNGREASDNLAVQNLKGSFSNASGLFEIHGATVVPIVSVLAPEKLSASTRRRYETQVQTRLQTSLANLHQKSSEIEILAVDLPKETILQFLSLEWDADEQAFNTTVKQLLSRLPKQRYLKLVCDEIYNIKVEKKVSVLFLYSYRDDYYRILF
In general terms: Time-resolved FRET reads energy transfer from a long-lived donor to a nearby acceptor.
Take `Cc1cnc(Nc2cc(C)n(C)n2)nc1-c1c[nH]c2c(N3Cc4c(cccc4-c4ccc5c(c4)CCC5)C3=O)cccc12` [Example 452, 4-(2,3-dihydro-1H-inden-5-yl)-2-(3-(2-((1,5-dimethyl-1H-pyrazol-3-yl)amino)-5-methylpyrimidin-4-yl)-1H-indol-7-yl)isoindolin-1-one]: the IC50 fell in the range of 0.1 to 1 µM.
As for `Cc1cnc(Nc2cc(C)n(C)n2)nc1-c1c[nH]c2c(N3Cc4cccc(NCC5CC5)c4C3=O)cccc12` [Example 351, 7-((cyclopropylmethyl)amino)-2-(3-(2-((1,5-dimethyl-1H-pyrazol-3-yl)amino)-5-methylpyrimidin-4-yl)-1H-indol-7-yl)isoindolin-1-one], the figure is 0.1 to 1 µM.
Take `Cc1cnc(Nc2cc(C)n(C)n2)nc1-c1c[nH]c2c(NC(=O)CN3CC[C@H](Oc4ncnc(N)n4)C3)cccc12` [Example 134, (S)-2-(3-((4-amino-1,3,5-triazin-2-yl)oxy)pyrrolidin-1-yl)-N-(3-(2-((1,5-dimethyl-1H-pyrazol-3-yl)amino)-5-methylpyrimidin-4-yl)-1H-indol-7-yl)acetamide]: the IC50 is below 0.01 µM.
For `CNc1ncnc(O[C@H]2CCN(CC(=O)Nc3cccc4c(-c5nc(Nc6cc(C)n(C)n6)ncc5C)c[nH]c34)C2)n1` [Example 135, (S)-N-(3-(2-((1,5-dimethyl-1H-pyrazol-3-yl)amino)-5-methylpyrimidin-4-yl)-1H-indol-7-yl)-2-(3-((4-(methylamino)-1,3,5-triazin-2-yl)oxy)pyrrolidin-1-yl)acetamide] the value was below 0.01 µM; for `Cc1cnc(Nc2cc(C)n(C)n2)nc1-c1c[nH]c2c(N3Cc4c(cccc4-c4ccc(CO)cc4)C3=O)cccc12` [Example 460, 2-(3-(2-((1,5-dimethyl-1H-pyrazol-3-yl)amino)-5-methylpyrimidin-4-yl)-1H-indol-7-yl)-4-(4-(hydroxymethyl)phenyl)isoindolin-1-one], below 0.01 µM; for `Cc1cnc(Nc2cc(C)n(C)n2)nc1-c1c[nH]c2c(N3Cc4c(cccc4C4=CCNCC4)C3=O)cccc12` [Example 394, 2-(3-(2-((1,5-dimethyl-1H-pyrazol-3-yl)amino)-5-methylpyrimidin-4-yl)-1H-indol-7-yl)-4-(1,2,3,6-tetrahydropyridin-4-yl)isoindolin-1-one], below 0.01 µM.
Take `Cc1cnc(Nc2cc(C)n(C)n2)nc1-c1c[nH]c2c(N3Cc4c(cccc4-c4ccc(NC(=O)OC(C)(C)C)cc4)C3=O)cccc12` [Example 398, tert-butyl (4-(2-(3-(2-((1,5-dimethyl-1H-pyrazol-3-yl)amino)-5-methylpyrimidin-4-yl)-1H-indol-7-yl)-1-oxoisoindolin-4-yl)phenyl)carbamate]: the IC50 is 0.01 to 0.1 µM.
For `Cc1cnc(Nc2cc(C)n(C)n2)nc1-c1c[nH]c2c(NC(=O)CN3CC[C@H](Oc4ccnc(NCC(C)(F)F)n4)C3)cccc12` [Example 199, (S)-2-(3-((2-((2,2-difluoropropyl)amino)pyrimidin-4-yl)oxy)pyrrolidin-1-yl)-N-(3-(2-((1,5-dimethyl-1H-pyrazol-3-yl)amino)-5-methylpyrimidin-4-yl)-1H-indol-7-yl)acetamide] the value was below 0.01 µM; for `Cc1cnc(Nc2cc(C)n(C)n2)nc1-c1c[nH]c2c(NC(=O)CN3CC[C@H](Oc4cc[nH]n4)C3)cccc12` [Example 116, (S)-2-(3-((1H-pyrazol-3-yl)oxy)pyrrolidin-1-yl)-N-(3-(2-((1,5-dimethyl-1H-pyrazol-3-yl)amino)-5-methylpyrimidin-4-yl)-1H-indol-7-yl)acetamide], 0.01 to 0.1 µM; for `Cc1cnc(Nc2cc(C)n(C)n2)nc1-c1c[nH]c2c(N3Cc4c(cccc4-c4ccc5c(c4)CNC5)C3=O)cccc12` [Example 430, 2-(3-(2-((1,5-dimethyl-1H-pyrazol-3-yl)amino)-5-methylpyrimidin-4-yl)-1H-indol-7-yl)-[4,5′-biisoindolin]-1-one], below 0.01 µM.
For `Cc1cnc(Nc2cc(C)n(C)n2)nc1-c1c[nH]c2c(NC(=O)CN3CC[C@H](Oc4ccnc(N(C)C)n4)C3)cccc12` [Example 220, (S)-N-(3-(2-((1,5-dimethyl-1H-pyrazol-3-yl)amino)-5-methylpyrimidin-4-yl)-1H-indol-7-yl)-2-(3-((2-(dimethylamino)pyrimidin-4-yl)oxy)pyrrolidin-1-yl)acetamide] the value was 0.01 to 0.1 µM.
On to `Cc1cnc(Nc2cc(C)n(C)n2)nc1-c1c[nH]c2c(NC(=O)CN3CC(Oc4cc(C(=O)NC5CC5)on4)C3)cccc12` [Example 33, N-cyclopropyl-3-((1-(2-((3-(2-((1,5-dimethyl-1H-pyrazol-3-yl)amino)-5-methylpyrimidin-4-yl)-1H-indol-7-yl)amino)-2-oxoethyl)azetidin-3-yl)oxy)isoxazole-5-carboxamide], for which the IC50 is 0.01 to 0.1 µM.
On to `Cc1cnc(Nc2cc(C)n(C)n2)nc1-c1c[nH]c2c(N3Cc4c(cccc4-c4c(F)cncc4F)C3=O)cccc12` [Example 428, 4-(3,5-difluoropyridin-4-yl)-2-(3-(2-((1,5-dimethyl-1H-pyrazol-3-yl)amino)-5-methylpyrimidin-4-yl)-1H-indol-7-yl)isoindolin-t-one], for which the IC50 was below 0.01 µM.
For `Cc1cnc(Nc2cc(C)n(C)n2)nc1-c1c[nH]c2c(NC(=O)CN3CCC(Oc4cc(C(=O)NC5CC5)on4)CC3)cccc12` [Example 43, N-cyclopropyl-3-((1-(2-((3-(2-((1,5-dimethyl-1H-pyrazol-3-yl)amino)-5-methylpyrimidin-4-yl)-1H-indol-7-yl)amino)-2-oxoethyl)piperidin-4-yl)oxy)isoxazole-5-carboxamide] the value was 0.01 to 0.1 µM; for `Cc1cnc(Nc2cc(C)n(C)n2)nc1-c1c[nH]c2c(NC(=O)CN3CC[C@H](Oc4cnc(NCCN(C)C)nc4)C3)cccc12` [Example 239, (S)-N-(3-(2-((1,5-dimethyl-1H-pyrazol-3-yl)amino)-5-methylpyrimidin-4-yl)-1H-indol-7-yl)-2-(3-((2-((2-(dimethylamino)ethyl)amino)pyrimidin-5-yl)oxy)pyrrolidin-1-yl)acetamide], 0.01 to 0.1 µM; for `CNc1cc(O[C@H]2CCN(CC(=O)Nc3cccc4c(-c5nc(Nc6cc(C)n(C)n6)ncc5C)c[nH]c34)C2)nc(N)n1` [Example 166, (S)-2-(3-((2-amino-6-(methylamino)pyrimidin-4-yl)oxy)pyrrolidin-1-yl)-N-(3-(2-((1,5-dimethyl-1H-pyrazol-3-yl)amino)-5-methylpyrimidin-4-yl)-1H-indol-7-yl)acetamide], below 0.01 µM.
`Cc1cnc(Nc2cc(C)n(C)n2)nc1-c1c[nH]c2c(NC(=O)CN3CCC(N4CCOCC4)CC3)cccc12` [Example 37, N-(3-(2-((1,5-dimethyl-1H-pyrazol-3-yl)amino)-5-methylpyrimidin-4-yl)-1H-indol-7-yl)-2-(4-morpholinopiperidin-1-yl)acetamide]: the IC50 lay in the range of 0.1 to 1 µM.
As for `Cc1cnc(Nc2cc(C)n(C)n2)nc1-c1c[nH]c2c(N3Cc4c(C5=CCNCC5)ccnc4C3=O)cccc12` [Example 496, 6-(3-(2-((1,5-dimethyl-1H-pyrazol-3-yl)amino)-5-methylpyrimidin-4-yl)-1H-indol-7-yl)-4-(1,2,3,6-tetrahydropyridin-4-yl)-5,6-dihydro-7H-pyrrolo[3,4-b]pyridin-7-one], the figure is below 0.01 µM; as for `CSc1nccc(O[C@H]2CCN(CC(=O)Nc3cccc4c(-c5nc(Nc6cc(C)n(C)n6)ncc5C)c[nH]c34)C2)n1` [Example 193, (S)-N-(3-(2-((1,5-dimethyl-1H-pyrazol-3-yl)amino)-5-methylpyrimidin-4-yl)-1H-indol-7-yl)-2-(3-((2-(methylthio)pyrimidin-4-yl)oxy)pyrrolidin-1-yl)acetamide], below 0.01 µM; as for `Cc1cnc(Nc2cc(C)n(C)n2)nc1-c1c[nH]c2c(NC(=O)CN3CCC(N4CCN(C)CC4)CC3)cccc12` [Example 36, N-(3-(2-((1,5-dimethyl-1H-pyrazol-3-yl)amino)-5-methylpyrimidin-4-yl)-1H-indol-7-yl)-2-(4-(4-methylpiperazin-1-yl)piperidin-1-yl)acetamide], 0.1 to 1 µM.
As for `Cc1cnc(Nc2cc(C)n(C)n2)nc1-c1c[nH]c2c(NC(=O)CN3CC[C@H](Oc4nccc(C(=O)N(C)C)n4)C3)cccc12` [Example 131, (S)-2-((1-(2-((3-(2-((1,5-dimethyl-1H-pyrazol-3-yl)amino)-5-methylpyrimidin-4-yl)-1H-indol-7-yl)amino)-2-oxoethyl)pyrrolidin-3-yl)oxy)-N,N-dimethylpyrimidine-4-carboxamide], the figure is 0.01 to 0.1 µM; as for `Cc1cnc(Nc2cc(C)n(C)n2)nc1-c1c[nH]c2c(N3Cc4c(-c5ccccc5)ccnc4C3=O)cccc12` [Example 493, 6-(3-(2-((1,5-dimethyl-1H-pyrazol-3-yl)amino)-5-methylpyrimidin-4-yl)-1H-indol-7-yl)-4-phenyl-5,6-dihydro-7H-pyrrolo[3,4-b]pyridin-7-one], below 0.01 µM; as for `Cc1cncc(C(=O)Nc2cccc3c2CN(c2cccc4c(-c5nc(Nc6cc(C)n(C)n6)ncc5C)c[nH]c24)C3=O)c1` [Example 334, N-(2-(3-(2-((1,5-dimethyl-1H-pyrazol-3-yl)amino)-5-methylpyrimidin-4-yl)-1H-indol-7-yl)-1-oxoisoindolin-4-yl)-5-methylnicotinamide], 0.01 to 0.1 µM.
As for `Cc1cc(Nc2ncc(Cl)c(-c3c[nH]c4c(NC(=O)CN5CC[C@H](Oc6ccncc6)C5)cccc34)n2)nn1C` [Example 9, (S)-N-(3-(5-chloro-2-((1,5-dimethyl-1H-pyrazol-3-yl)amino)pyrimidin-4-yl)-1H-indol-7-yl)-2-(3-(pyridin-4-yloxy)pyrrolidin-1-yl)acetamide], the figure is below 0.01 µM.
`Cc1cnc(Nc2cc(C)n(C)n2)nc1-c1c[nH]c2c(NC(=O)CN3CC[C@H](Oc4ccnc(N5CCOCC5)n4)C3)cccc12` [Example 224, (S)-N-(3-(2-((1,5-dimethyl-1H-pyrazol-3-yl)amino)-5-methylpyrimidin-4-yl)-1H-indol-7-yl)-2-(3-((2-morpholinopyrimidin-4-yl)oxy)pyrrolidin-1-yl)acetamide]: the IC50 is below 0.01 µM.

The values are drawn from patent US20240025884A1 (Dong-A ST Co., Ltd., priority 2022, published 2024).
